{
  "source": "ChEMBL document CHEMBL1201861",
  "about": "“Genomics of Drug Sensitity in Cancer screening data, Wellcome Trust Sanger Institute”",
  "assay_in_all_cases": "cells",
  "key": {"IST-MEL1": {"tested_on": "IST-MEL1", "assay_type": "functional, cell-based, Homo sapiens", "details": "Homo sapiens, IST-MEL1", "description": "SANGER: Inhibition of human IST-MEL1 cell growth in a cell viability assay."}, "COR-L88": {"tested_on": "COR-L88", "assay_type": "functional, cell-based", "details": "Homo sapiens", "description": "SANGER: Inhibition of human COR-L88 cell growth in a cell viability assay."}, "MLMA": {"tested_on": "MLMA", "assay_type": "functional, cell-based, Homo sapiens", "details": "Homo sapiens, MLMA", "description": "SANGER: Inhibition of human MLMA cell growth in a cell viability assay."}, "C32": {"tested_on": "C32", "assay_type": "functional, cell-based, Homo sapiens", "details": "Homo sapiens, C32", "description": "SANGER: Inhibition of human C32 cell growth in a cell viability assay."}, "HCT-116": {"tested_on": "HCT-116", "assay_type": "functional, cell-based, Homo sapiens", "details": "Homo sapiens, HCT-116", "description": "SANGER: Inhibition of human HCT-116 cell growth in a cell viability assay."}, "Lu-65": {"tested_on": "Lu-65", "assay_type": "functional, cell-based", "details": "Homo sapiens", "description": "SANGER: Inhibition of human LU-65 cell growth in a cell viability assay."}, "GMS-10": {"tested_on": "GMS-10", "assay_type": "functional, cell-based, Homo sapiens", "details": "Homo sapiens, GMS-10", "description": "SANGER: Inhibition of human GMS-10 cell growth in a cell viability assay."}, "OMC-1": {"tested_on": "OMC-1", "assay_type": "functional, cell-based, Homo sapiens", "details": "Homo sapiens, OMC-1", "description": "SANGER: Inhibition of human OMC-1 cell growth in a cell viability assay."}, "OVCAR-3": {"tested_on": "OVCAR-3", "assay_type": "functional, cell-based, Homo sapiens", "details": "Homo sapiens, OVCAR-3", "description": "SANGER: Inhibition of human OVCAR-3 cell growth in a cell viability assay."}, "EW-11": {"tested_on": "EW-11", "assay_type": "functional, cell-based, Homo sapiens", "details": "Homo sapiens, EW-11", "description": "SANGER: Inhibition of human EW-11 cell growth in a cell viability assay."}, "MIA PaCa-2": {"tested_on": "MIA PaCa-2", "assay_type": "functional, cell-based, Homo sapiens", "details": "Homo sapiens, MIA PaCa-2", "description": "SANGER: Inhibition of human MIA-PaCa-2 cell growth in a cell viability assay."}, "HMV-2 cell line": {"tested_on": "HMV-2 cell line", "assay_type": "functional, cell-based, Homo sapiens", "details": "Homo sapiens, HMV-2", "description": "SANGER: Inhibition of human HMV-II cell growth in a cell viability assay."}, "QIMR-WIL": {"tested_on": "QIMR-WIL", "assay_type": "functional, cell-based", "details": "Homo sapiens", "description": "SANGER: Inhibition of human QIMR-WIL cell growth in a cell viability assay."}, "KINGS-1": {"tested_on": "KINGS-1", "assay_type": "functional, cell-based, Homo sapiens", "details": "Homo sapiens, KINGS-1", "description": "SANGER: Inhibition of human KINGS-1 cell growth in a cell viability assay."}, "SW756": {"tested_on": "SW756", "assay_type": "functional, cell-based, Homo sapiens", "details": "Homo sapiens, SW756", "description": "SANGER: Inhibition of human SW756 cell growth in a cell viability assay."}, "NCI-H596": {"tested_on": "NCI-H596", "assay_type": "functional, cell-based, Homo sapiens", "details": "Homo sapiens, NCI-H596", "description": "SANGER: Inhibition of human NCI-H596 cell growth in a cell viability assay."}, "NCI-H2228": {"tested_on": "NCI-H2228", "assay_type": "functional, cell-based, Homo sapiens", "details": "Homo sapiens, NCI-H2228", "description": "SANGER: Inhibition of human NCI-H2228 cell growth in a cell viability assay."}, "VA-ES-BJ": {"tested_on": "VA-ES-BJ", "assay_type": "functional, cell-based, Homo sapiens", "details": "Homo sapiens, VA-ES-BJ", "description": "SANGER: Inhibition of human VA-ES-BJ cell growth in a cell viability assay."}, "DOK": {"tested_on": "DOK", "assay_type": "functional, cell-based, Homo sapiens", "details": "Homo sapiens, DOK", "description": "SANGER: Inhibition of human DOK cell growth in a cell viability assay."}, "LN-405": {"tested_on": "LN-405", "assay_type": "functional, cell-based, Homo sapiens", "details": "Homo sapiens, LN-405", "description": "SANGER: Inhibition of human LN-405 cell growth in a cell viability assay."}, "TGBC1TKB": {"tested_on": "TGBC1TKB", "assay_type": "functional, cell-based, Homo sapiens", "details": "Homo sapiens, TGBC1TKB", "description": "SANGER: Inhibition of human TGBC1TKB cell growth in a cell viability assay."}, "UACC-257": {"tested_on": "UACC-257", "assay_type": "functional, cell-based, Homo sapiens", "details": "Homo sapiens, UACC-257", "description": "SANGER: Inhibition of human UACC-257 cell growth in a cell viability assay."}, "NCI-N87": {"tested_on": "NCI-N87", "assay_type": "functional, cell-based, Homo sapiens", "details": "Homo sapiens, NCI-N87", "description": "SANGER: Inhibition of human NCI-N87 cell growth in a cell viability assay."}, "NCI-H1793": {"tested_on": "NCI-H1793", "assay_type": "functional, cell-based, Homo sapiens", "details": "Homo sapiens, NCI-H1793", "description": "SANGER: Inhibition of human NCI-H1793 cell growth in a cell viability assay."}, "SiHa": {"tested_on": "SiHa", "assay_type": "functional, cell-based, Homo sapiens", "details": "Homo sapiens, SiHa", "description": "SANGER: Inhibition of human SiHa cell growth in a cell viability assay."}, "Ca-Ski": {"tested_on": "Ca-Ski", "assay_type": "functional, cell-based", "details": "Homo sapiens", "description": "SANGER: Inhibition of human Ca-Ski cell growth in a cell viability assay."}, "NCI-H69": {"tested_on": "NCI-H69", "assay_type": "functional, cell-based", "details": "Homo sapiens", "description": "SANGER: Inhibition of human NCI-H69 cell growth in a cell viability assay."}, "SF-126": {"tested_on": "SF-126", "assay_type": "functional, cell-based, Homo sapiens", "details": "Homo sapiens, SF-126", "description": "SANGER: Inhibition of human SF126 cell growth in a cell viability assay."}, "SW1990": {"tested_on": "SW1990", "assay_type": "functional, cell-based, Homo sapiens", "details": "Homo sapiens, SW1990", "description": "SANGER: Inhibition of human SW1990 cell growth in a cell viability assay."}, "Huh-7": {"tested_on": "Huh-7", "assay_type": "functional, cell-based, Homo sapiens", "details": "Homo sapiens, Huh-7", "description": "SANGER: Inhibition of human HuH-7 cell growth in a cell viability assay."}, "NCI-H810": {"tested_on": "NCI-H810", "assay_type": "functional, cell-based, Homo sapiens", "details": "Homo sapiens, NCI-H810", "description": "SANGER: Inhibition of human NCI-H810 cell growth in a cell viability assay."}, "SW684": {"tested_on": "SW684", "assay_type": "functional, cell-based, Homo sapiens", "details": "Homo sapiens, SW684", "description": "SANGER: Inhibition of human SW684 cell growth in a cell viability assay."}, "HCC 2998": {"tested_on": "HCC 2998", "assay_type": "functional, cell-based, Homo sapiens", "details": "Homo sapiens, HCC 2998", "description": "SANGER: Inhibition of human HCC2998 cell growth in a cell viability assay."}, "IGR-1": {"tested_on": "IGR-1", "assay_type": "functional, cell-based, Homo sapiens", "details": "Homo sapiens, IGR-1", "description": "SANGER: Inhibition of human IGR-1 cell growth in a cell viability assay."}, "GI-ME-N": {"tested_on": "GI-ME-N", "assay_type": "functional, cell-based, Homo sapiens", "details": "Homo sapiens, GI-ME-N", "description": "SANGER: Inhibition of human GI-ME-N cell growth in a cell viability assay."}, "BFTC-909": {"tested_on": "BFTC-909", "assay_type": "functional, cell-based, Homo sapiens", "details": "Homo sapiens, BFTC-909", "description": "SANGER: Inhibition of human BFTC-909 cell growth in a cell viability assay."}, "KYSE-450": {"tested_on": "KYSE-450", "assay_type": "functional, cell-based", "details": "Homo sapiens", "description": "SANGER: Inhibition of human KYSE-450 cell growth in a cell viability assay."}, "DMS-273": {"tested_on": "DMS-273", "assay_type": "functional, cell-based, Homo sapiens", "details": "Homo sapiens, DMS-273", "description": "SANGER: Inhibition of human DMS-273 cell growth in a cell viability assay."}, "GT3TKB": {"tested_on": "GT3TKB", "assay_type": "functional, cell-based, Homo sapiens", "details": "Homo sapiens, GT3TKB", "description": "SANGER: Inhibition of human GT3TKB cell growth in a cell viability assay."}, "NB69": {"tested_on": "NB69", "assay_type": "functional, cell-based, Homo sapiens", "details": "Homo sapiens, NB69", "description": "SANGER: Inhibition of human NB69 cell growth in a cell viability assay."}, "5637": {"tested_on": "5637", "assay_type": "functional, cell-based, Homo sapiens", "details": "Homo sapiens", "description": "SANGER: Inhibition of human 5637 cell growth in a cell viability assay."}, "CHP-212": {"tested_on": "CHP-212", "assay_type": "functional, cell-based, Homo sapiens", "details": "Homo sapiens, CHP-212", "description": "SANGER: Inhibition of human CHP-212 cell growth in a cell viability assay."}, "NCI-H1792": {"tested_on": "NCI-H1792", "assay_type": "functional, cell-based, Homo sapiens", "details": "Homo sapiens, NCI-H1792", "description": "SANGER: Inhibition of human NCI-H1792 cell growth in a cell viability assay."}, "NCI-H1395": {"tested_on": "NCI-H1395", "assay_type": "functional, cell-based, Homo sapiens", "details": "Homo sapiens, NCI-H1395", "description": "SANGER: Inhibition of human NCI-H1395 cell growth in a cell viability assay."}, "IST-MES1": {"tested_on": "IST-MES1", "assay_type": "functional, cell-based, Homo sapiens", "details": "Homo sapiens, IST-MES1", "description": "SANGER: Inhibition of human IST-MES1 cell growth in a cell viability assay."}, "NCI-H2122": {"tested_on": "NCI-H2122", "assay_type": "functional, cell-based, Homo sapiens", "details": "Homo sapiens, NCI-H2122", "description": "SANGER: Inhibition of human NCI-H2122 cell growth in a cell viability assay."}, "LCLC-103H cell line": {"tested_on": "LCLC-103H cell line", "assay_type": "functional, cell-based, Homo sapiens", "details": "Homo sapiens, LCLC-103H", "description": "SANGER: Inhibition of human LCLC-103H cell growth in a cell viability assay."}, "Ca9-22": {"tested_on": "Ca9-22", "assay_type": "functional, cell-based, Homo sapiens", "details": "Homo sapiens, Ca9-22", "description": "SANGER: Inhibition of human Ca9-22 cell growth in a cell viability assay."}, "DU-145": {"tested_on": "DU-145", "assay_type": "functional, cell-based, Homo sapiens", "details": "Homo sapiens, DU-145", "description": "SANGER: Inhibition of human DU-145 cell growth in a cell viability assay."}},
  "data": [
    {"smiles": "CN(C)C/C=C/C(=O)Nc1cc2c(Nc3ccc(F)c(Cl)c3)ncnc2cc1O[C@H]1CCOC1", "note": "[AFATINIB]", "values": [
      {"measurement": "IC50", "setting": "IST-MEL1", "result": "> 0.5", "unit": "µM"},
      {"measurement": "IC50", "setting": "COR-L88", "result": "> 0.5", "unit": "µM"},
      {"measurement": "IC50", "setting": "MLMA", "result": "> 0.5", "unit": "µM"},
      {"measurement": "IC50", "setting": "C32", "result": "> 0.5", "unit": "µM"},
      {"measurement": "IC50", "setting": "HCT-116", "result": "> 0.5", "unit": "µM"},
      {"measurement": "IC50", "setting": "Lu-65", "result": 0.126, "unit": "µM"},
      {"measurement": "IC50", "setting": "GMS-10", "result": "> 0.5", "unit": "µM"},
      {"measurement": "IC50", "setting": "OMC-1", "result": "> 0.5", "unit": "µM"},
      {"measurement": "IC50", "setting": "OVCAR-3", "result": "> 0.5", "unit": "µM"},
      {"measurement": "IC50", "setting": "EW-11", "result": "> 0.5", "unit": "µM"},
      {"measurement": "IC50", "setting": "MIA PaCa-2", "result": "> 0.5", "unit": "µM"},
      {"measurement": "IC50", "setting": "HMV-2 cell line", "result": "> 0.5", "unit": "µM"},
      {"measurement": "IC50", "setting": "QIMR-WIL", "result": "> 0.5", "unit": "µM"},
      {"measurement": "IC50", "setting": "KINGS-1", "result": "> 0.5", "unit": "µM"},
      {"measurement": "IC50", "setting": "SW756", "result": "> 0.5", "unit": "µM"},
      {"measurement": "IC50", "setting": "NCI-H596", "result": "> 0.5", "unit": "µM"},
      {"measurement": "IC50", "setting": "NCI-H2228", "result": "> 0.5", "unit": "µM"},
      {"measurement": "IC50", "setting": "VA-ES-BJ", "result": "> 0.5", "unit": "µM"},
      {"measurement": "IC50", "setting": "DOK", "result": 0.0319, "unit": "µM"},
      {"measurement": "IC50", "setting": "LN-405", "result": "> 0.5", "unit": "µM"},
      {"measurement": "IC50", "setting": "TGBC1TKB", "result": "> 0.5", "unit": "µM"},
      {"measurement": "IC50", "setting": "UACC-257", "result": "> 0.5", "unit": "µM"},
      {"measurement": "IC50", "setting": "NCI-N87", "result": 0.0277, "unit": "µM"},
      {"measurement": "IC50", "setting": "NCI-H1793", "result": "> 0.5", "unit": "µM"},
      {"measurement": "IC50", "setting": "SiHa", "result": "> 0.5", "unit": "µM"},
      {"measurement": "IC50", "setting": "Ca-Ski", "result": "> 0.5", "unit": "µM"},
      {"measurement": "IC50", "setting": "NCI-H69", "result": 0.215, "unit": "µM"},
      {"measurement": "IC50", "setting": "SF-126", "result": "> 0.5", "unit": "µM"},
      {"measurement": "IC50", "setting": "SW1990", "result": "> 0.5", "unit": "µM"},
      {"measurement": "IC50", "setting": "Huh-7", "result": "> 0.5", "unit": "µM"},
      {"measurement": "IC50", "setting": "NCI-H810", "result": "> 0.5", "unit": "µM"},
      {"measurement": "IC50", "setting": "SW684", "result": "> 0.5", "unit": "µM"},
      {"measurement": "IC50", "setting": "HCC 2998", "result": "> 0.5", "unit": "µM"},
      {"measurement": "IC50", "setting": "IGR-1", "result": "> 0.5", "unit": "µM"},
      {"measurement": "IC50", "setting": "GI-ME-N", "result": "> 0.5", "unit": "µM"},
      {"measurement": "IC50", "setting": "BFTC-909", "result": "> 0.5", "unit": "µM"},
      {"measurement": "IC50", "setting": "KYSE-450", "result": 0.0598, "unit": "µM"},
      {"measurement": "IC50", "setting": "DMS-273", "result": "> 0.5", "unit": "µM"},
      {"measurement": "IC50", "setting": "GT3TKB", "result": "> 0.5", "unit": "µM"},
      {"measurement": "IC50", "setting": "NB69", "result": "> 0.5", "unit": "µM"},
      {"measurement": "IC50", "setting": "5637", "result": "> 0.5", "unit": "µM"},
      {"measurement": "IC50", "setting": "CHP-212", "result": "> 0.5", "unit": "µM"},
      {"measurement": "IC50", "setting": "NCI-H1792", "result": "> 0.5", "unit": "µM"},
      {"measurement": "IC50", "setting": "NCI-H1395", "result": "> 0.5", "unit": "µM"},
      {"measurement": "IC50", "setting": "IST-MES1", "result": "> 0.5", "unit": "µM"},
      {"measurement": "IC50", "setting": "NCI-H2122", "result": "> 0.5", "unit": "µM"},
      {"measurement": "IC50", "setting": "LCLC-103H cell line", "result": "> 0.5", "unit": "µM"},
      {"measurement": "IC50", "setting": "Ca9-22", "result": 0.0835, "unit": "µM"},
      {"measurement": "IC50", "setting": "DU-145", "result": 0.448, "unit": "µM"}
    ]}
  ]
}
